Measured values: US10448639B2, “Fungicidal pyrazoles” (FMC CORPORATION, priority 2009, dated 2019)

Columns and labels:
[1] = test system: Erysiphe graminis f sp. tritici; experiment: Test J: wheat powdery mildew, preventive spray on wheat seedlings, visual disease rating; details: wheat powdery mildew; 100 = 100% disease control, 0 = no control relative to controls
[2] = test system: Puccinia recondita f. sp. tritici; experiment: Test H: wheat leaf rust, curative spray on inoculated wheat seedlings, visual disease rating; details: wheat leaf rust, curative; 100 = 100% disease control, 0 = no control relative to controls
Septoria nodorum = experiment: Test F: Septoria glume blotch, preventive spray on wheat seedlings, visual disease rating; details: Septoria glume blotch; 100 = 100% disease control, 0 = no control relative to controls
[3] = test system: Puccinia recondita f. sp. tritici; experiment: Test I: wheat leaf rust, preventive spray on wheat seedlings, visual disease rating; details: wheat leaf rust, preventive; 100 = 100% disease control, 0 = no control relative to controls
Septoria tritici = experiment: Test G: wheat leaf blotch, preventive spray on wheat seedlings, visual disease rating; details: wheat leaf blotch; 100 = 100% disease control, 0 = no control relative to controls
Alternaria solani = experiment: Test C: tomato early blight, preventive spray on tomato seedlings, visual disease rating; details: tomato early blight; 100 = 100% disease control, 0 = no control relative to controls
Botrytis cinerea = experiment: Test B: tomato Botrytis, preventive spray on tomato seedlings, visual disease rating; details: tomato Botrytis; 100 = 100% disease control, 0 = no control relative to controls

SMILES	Test J rating (% disease control) [1]	Test H rating (% disease control) [2]	Test F rating (% disease control) (Septoria nodorum)	Test I rating (% disease control) [3]	Test G rating (% disease control) (Septoria tritici)	Test C rating (% disease control) (Alternaria solani)	Test B rating (% disease control) (Botrytis cinerea)
COc1ccc(-c2c(C)nn(C)c2Nc2c(F)cccc2F)c(Cl)c1 [compound 161]	98%	95%	0%	100%	100%	100%	98%
Cc1nn(C)c(Nc2ccc(C#N)cc2Cl)c1-c1ccc(F)cc1Cl [compound 162]	94%	8%	0%	98%	99%	0%	99%
Cc1nn(C)c(Oc2cc(C#N)c(C#N)cc2Cl)c1-c1c(F)cc(F)cc1F [compound 163]	0%	0%	0%	88%	83%	9%	0%
COc1cc(Oc2c(-c3c(F)cc(F)cc3F)c(C)nn2C)ccc1Cl [compound 164]	97%	15%	0%	9%	99%	57%	49%
Cc1cc(Oc2c(-c3c(F)cc(F)cc3F)c(C)nn2C)ccc1Br [compound 165]	99%	8%	0%	0%	52%	0%	0%
COc1cc(Oc2c(-c3c(F)cc(F)cc3F)c(C)nn2C)ccc1Br [compound 166]	96%	0%	0%	68%	97%	0%	0%
Cc1nn(C)c(Oc2cc(F)cc(F)c2F)c1-c1c(F)cc(F)cc1F [compound 167]	0%	0%	0%	0%	0%	0%	75%
Cc1nn(C)c(Oc2ccc(C#N)c(C#N)c2)c1-c1ccc(F)cc1Cl [compound 168]	0%	0%	0%	0%	33%	0%	14%
Cc1nn(C)c(Oc2ccc(C#N)c(C#N)c2)c1-c1c(F)cc(F)cc1F [compound 169]	0%	0%	0%	0%	85%	0%	24%
Cc1nn(C)c(Oc2c(F)cc(C#N)cc2F)c1-c1ccc(F)cc1F [compound 170]	99%	0%	99%	100%	98%	99%	100%
Cc1nn(C)c(Nc2c(F)ccc(F)c2F)c1-c1ccc(F)cc1Cl [compound 171]	100%	68%	0%	99%	97%	97%	100%
Cc1nn(C)c(Nc2cc(F)ccc2F)c1-c1ccc(F)cc1Cl [compound 173]	100%	0%	0%	83%	98%	86%	100%
COc1ccc(-c2c(C)nn(C)c2Nc2c(F)ccc(F)c2F)c(Cl)c1 [compound 174]	99%	0%	0%	97%	96%	99%	100%
COc1ccc(-c2c(C)nn(C)c2Nc2cc(F)ccc2F)c(Cl)c1 [compound 176]	100%	0%	0%	68%	96%	71%	100%
Cc1nn(C)c(Nc2ccc(F)cc2F)c1-c1c(F)cccc1Cl [compound 177]	100%	0%	73%	83%	98%	100%	100%
Cc1nn(C)c(Nc2ccc(F)cc2F)c1-c1c(F)cccc1F [compound 178]	100%	0%	80%	83%	98%	100%	100%
Cc1nn(C)c(Nc2ccc(Cl)cc2Cl)c1-c1c(F)cccc1F [compound 179]	100%	0%	73%	93%	95%	99%	100%
COc1ccc(Nc2c(-c3c(F)cccc3F)c(C)nn2C)c(F)c1 [compound 180]	100%	0%	0%	68%	98%	99%	100%
Cc1nn(C)c(Nc2ccc(F)cc2F)c1-c1ccccc1F [compound 181]	98%	0%	0%	60%	100%	44%	94%
Cc1nn(C)c(Nc2c(F)cc(F)cc2F)c1-c1ccccc1F [compound 182]	99%	0%	87%	95%	100%	99%	97%
